# According to ChEMBL document CHEMBL1135906 (J Med Chem, 2002):
# pIC50: −log10 of the molar value.
# How the values were obtained:
# [1] = target: Prostaglandin G/H synthase 1 (Homo sapiens, UniProt P23219); assay: Inhibition of human purified Prostaglandin G/H synthase 1
# [2] = target: T1, Prostaglandin G/H synthase 2 (Homo sapiens, UniProt P35354); assay: Inhibition of human purified Prostaglandin G/H synthase 2
# T1 sequence (P35354 whole entry): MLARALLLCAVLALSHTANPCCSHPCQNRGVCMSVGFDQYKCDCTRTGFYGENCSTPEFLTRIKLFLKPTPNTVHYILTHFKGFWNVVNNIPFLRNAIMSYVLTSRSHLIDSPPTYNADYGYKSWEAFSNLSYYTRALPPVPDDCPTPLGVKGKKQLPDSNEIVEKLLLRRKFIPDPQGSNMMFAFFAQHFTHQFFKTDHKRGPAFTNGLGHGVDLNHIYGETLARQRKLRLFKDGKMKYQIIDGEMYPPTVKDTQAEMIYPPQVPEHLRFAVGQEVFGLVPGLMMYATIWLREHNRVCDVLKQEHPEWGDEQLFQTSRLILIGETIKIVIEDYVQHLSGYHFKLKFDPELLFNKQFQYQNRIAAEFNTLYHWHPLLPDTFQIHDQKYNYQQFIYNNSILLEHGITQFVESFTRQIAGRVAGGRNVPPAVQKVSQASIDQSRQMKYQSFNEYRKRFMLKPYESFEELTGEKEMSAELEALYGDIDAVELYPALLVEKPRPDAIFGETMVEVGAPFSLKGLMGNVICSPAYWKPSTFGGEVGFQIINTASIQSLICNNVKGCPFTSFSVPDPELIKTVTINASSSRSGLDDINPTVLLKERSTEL
# Rattus norvegicus [3] = assay: The compound was tested in vivo for activity against carrageenan induced paw edema in rat after peroral administration; assay type: functional; conditions: po
# Rattus norvegicus [4] = assay: The compound was tested in vivo for gastric ulcerogenic activity in rat after peroral administration; assay type: functional, Stomach
# Rattus norvegicus [5] = organism: Rattus norvegicus; assay: animal or person; conditions: po
# Description: The compound was tested in vivo for activity against adjuvant-induced arthritis in rat after peroral administration after peroral administration
# Rattus norvegicus [6] = assay: The compound was tested in vivo for activity against adjuvant-induced arthritis in rat after peroral administration; assay type: functional; conditions: po
# Rattus norvegicus [7] = assay: The compound was tested in vivo for activity against yeast -induced hyperalgesia in rat after peroral administration; assay type: functional; conditions: po
# Rattus norvegicus [8] = assay: The compound was tested in vivo for activity against yeast -induced hyperthermia in rat after peroral administration; assay type: functional; conditions: po
# Rattus norvegicus [9] = assay: The effective dose in vivo for activity against carrageenan induced paw edema in rat after administering perorally; assay type: functional
# Rattus norvegicus [10] = assay: Under dose in vivo for activity against carrageenan induced paw edema in rat after administering perorally; assay type: functional
# Prostaglandin G/H synthase 1, sequence (P23219 whole entry): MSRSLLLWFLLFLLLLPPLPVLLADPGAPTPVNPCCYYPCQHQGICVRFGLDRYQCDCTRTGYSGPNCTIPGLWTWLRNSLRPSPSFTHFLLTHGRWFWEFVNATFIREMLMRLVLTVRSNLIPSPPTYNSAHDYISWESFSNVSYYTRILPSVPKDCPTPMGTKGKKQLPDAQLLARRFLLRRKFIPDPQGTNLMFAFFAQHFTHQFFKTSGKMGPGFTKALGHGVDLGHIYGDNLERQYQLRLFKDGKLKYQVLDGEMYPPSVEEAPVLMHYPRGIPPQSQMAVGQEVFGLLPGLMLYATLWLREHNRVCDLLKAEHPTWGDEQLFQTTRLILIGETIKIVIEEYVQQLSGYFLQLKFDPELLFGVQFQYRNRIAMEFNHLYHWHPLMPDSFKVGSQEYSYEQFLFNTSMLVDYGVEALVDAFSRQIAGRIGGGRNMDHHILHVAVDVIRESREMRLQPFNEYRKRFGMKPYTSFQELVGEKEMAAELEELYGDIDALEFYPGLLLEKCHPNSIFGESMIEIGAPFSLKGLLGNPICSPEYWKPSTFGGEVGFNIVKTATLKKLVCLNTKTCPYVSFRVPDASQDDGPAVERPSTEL
Compound,pIC50 [1],pIC50 [2],also measured
Cc1nc(C2CCCCC2)c(-c2ccc(S(N)(=O)=O)c(C)c2)o1,< 4.00,,
Cc1nc(-c2ccc(F)cc2)c(-c2ccc(S(N)(=O)=O)c(F)c2)o1,4.40,7.40,
COc1cc(-c2oc(C)nc2C2CCCCC2)ccc1S(N)(=O)=O,< 4.00,< 4.00,
Cc1ccc(-c2cc(C(F)(F)F)nn2-c2ccc(S(N)(=O)=O)cc2)cc1 [CELECOXIB],,,ED50 (Rattus norvegicus [3]): 2.8 mg/kg; UD50 (Rattus norvegicus [4]): >200 mg/kg; ED50 (Rattus norvegicus [5]): 0.37 mg/kg
Cc1nc(-c2ccc(C)s2)c(-c2ccc(S(N)(=O)=O)c(F)c2)o1,4.60,7.59,
CCc1nc(C2CCCCC2)c(-c2ccc(S(N)(=O)=O)c(F)c2)o1,4.33,6.92,
COc1ccc2c(c1)c(CC(=O)O)c(C)n2C(=O)c1ccc(Cl)cc1 [INDOMETHACIN],,,ED50 (Rattus norvegicus [6]): 0.13 mg/kg; ED50 (Rattus norvegicus [3]): 1.6 mg/kg; ED50 (Rattus norvegicus [7]): 3.1 mg/kg; ED50 (Rattus norvegicus [8]): 1.4 mg/kg; UD50 (Rattus norvegicus [4]): 3.4 mg/kg
Cc1nc(-c2ccc(C)s2)c(-c2ccc(S(N)(=O)=O)cc2)o1,5.74,7.92,
Cc1nc(C2CCCCC2)c(-c2ccc(S(N)(=O)=O)c(Cl)c2)o1,< 4.00,,
CC(C)c1nc(C2CCCCC2)c(-c2ccc(S(N)(=O)=O)c(F)c2)o1,4.53,6.22,
Cc1nc(C2CCCCC2)c(-c2ccc(S(N)(=O)=O)c(N)c2)o1,< 4.00,6.03,
Cc1nc(C2CCCCC2)c(-c2ccc(S(N)(=O)=O)c(O)c2)o1,< 4.00,4.71,
Cc1nc(C2CCCCC2)c(-c2ccc(S(N)(=O)=O)c(F)c2)o1 [TILMACOXIB],< 4.00,7.07,ED50 (Rattus norvegicus [9]): 4.4 mg kg-1 [middle of 4 runs]; UD50 (Rattus norvegicus [10]): >300 mg/kg
